Results published in ChEMBL document CHEMBL5442175, “EUbOPEN Chemogenomics Library - PDSP Secondary Binding” (2024).

Experiments:
[1] = target: T1, Muscarinic acetylcholine receptor M5 (Homo sapiens, UniProt P08912); assay: (§1) PDSP Secondary Binding target: CHRM5 - Compounds are tested at 10 uM concentration, plate are incubated at room temperature in the dark for 90 minutes. Reaction are stopped by vacuum filtration onto 0.3% polyethyleneimine soaked filter mats using Filtermate harvester. Scintillation cocktail is then melted onto microwave-dried filters on a hot plate and the radio activity is counted in Microbia counter.
T1 sequence (P08912 whole entry): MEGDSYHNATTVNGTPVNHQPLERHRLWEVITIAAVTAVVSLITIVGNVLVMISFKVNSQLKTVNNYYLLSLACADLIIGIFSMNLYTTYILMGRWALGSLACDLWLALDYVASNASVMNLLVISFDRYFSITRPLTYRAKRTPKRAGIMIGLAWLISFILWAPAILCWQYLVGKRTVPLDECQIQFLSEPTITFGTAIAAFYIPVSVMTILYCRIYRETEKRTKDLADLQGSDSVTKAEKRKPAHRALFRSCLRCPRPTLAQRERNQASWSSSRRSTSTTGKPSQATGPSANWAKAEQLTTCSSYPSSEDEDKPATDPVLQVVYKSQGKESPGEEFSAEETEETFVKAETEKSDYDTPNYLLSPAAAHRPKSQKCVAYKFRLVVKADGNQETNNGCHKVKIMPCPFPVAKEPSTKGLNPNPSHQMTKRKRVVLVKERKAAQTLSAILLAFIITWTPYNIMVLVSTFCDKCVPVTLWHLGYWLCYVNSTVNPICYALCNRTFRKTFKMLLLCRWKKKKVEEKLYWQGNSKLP

[2] = target: Sigma intracellular receptor 2 (Homo sapiens, UniProt Q5BJF2); assay: as §1, with “TMEM97” for “CHRM5”
[3] = target: Kappa-type opioid receptor (Homo sapiens, UniProt P41145); assay: as §1, with “OPRK1” for “CHRM5”
[4] = target: Sigma non-opioid intracellular receptor 1 (Homo sapiens, UniProt Q99720); assay: as §1, with “SIGMAR1” for “CHRM5”
[5] = target: T2, Alpha-2C adrenergic receptor (Homo sapiens, UniProt P18825); assay: as §1, with “ADRA2C” for “CHRM5”
T2 sequence (P18825 whole entry): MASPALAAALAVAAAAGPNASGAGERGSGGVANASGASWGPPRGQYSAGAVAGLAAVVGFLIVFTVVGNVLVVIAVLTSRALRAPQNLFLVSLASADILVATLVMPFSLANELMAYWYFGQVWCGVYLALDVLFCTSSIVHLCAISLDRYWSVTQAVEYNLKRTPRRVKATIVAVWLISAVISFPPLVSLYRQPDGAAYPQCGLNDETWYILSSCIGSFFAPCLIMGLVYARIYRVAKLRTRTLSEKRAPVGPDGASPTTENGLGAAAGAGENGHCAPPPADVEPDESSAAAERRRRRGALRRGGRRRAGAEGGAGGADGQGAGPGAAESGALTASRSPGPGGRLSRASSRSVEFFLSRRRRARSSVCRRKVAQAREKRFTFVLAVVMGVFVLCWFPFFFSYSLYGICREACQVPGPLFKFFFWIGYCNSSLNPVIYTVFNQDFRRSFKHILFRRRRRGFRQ

Histamine H3 receptor = Histamine H3 receptor (Homo sapiens, UniProt Q9Y5N1); assay: as §1, with “HRH3” for “CHRM5”
[6] = target: T3, Muscarinic acetylcholine receptor M2 (Homo sapiens, UniProt P08172); assay: as §1, with “CHRM2” for “CHRM5”
T3 sequence (P08172 whole entry): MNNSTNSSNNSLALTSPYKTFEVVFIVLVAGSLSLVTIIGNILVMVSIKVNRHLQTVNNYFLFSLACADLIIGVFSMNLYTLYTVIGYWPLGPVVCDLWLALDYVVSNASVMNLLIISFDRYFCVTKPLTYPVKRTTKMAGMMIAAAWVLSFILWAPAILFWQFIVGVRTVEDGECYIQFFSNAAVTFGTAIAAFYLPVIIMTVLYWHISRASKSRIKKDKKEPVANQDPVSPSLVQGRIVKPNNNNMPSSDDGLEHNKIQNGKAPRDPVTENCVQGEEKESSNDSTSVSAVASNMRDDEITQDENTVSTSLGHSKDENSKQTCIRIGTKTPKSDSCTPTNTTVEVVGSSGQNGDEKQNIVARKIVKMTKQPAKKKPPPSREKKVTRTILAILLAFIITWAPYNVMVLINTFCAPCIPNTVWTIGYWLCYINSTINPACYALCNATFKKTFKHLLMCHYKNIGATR

[7] = target: Sodium-dependent dopamine transporter (Homo sapiens, UniProt Q01959); assay: as §1, with “SLC6A3” for “CHRM5”
[8] = target: T4, Muscarinic acetylcholine receptor M1 (Homo sapiens, UniProt P11229); assay: as §1, with “CHRM1” for “CHRM5”
T4 sequence (P11229 whole entry): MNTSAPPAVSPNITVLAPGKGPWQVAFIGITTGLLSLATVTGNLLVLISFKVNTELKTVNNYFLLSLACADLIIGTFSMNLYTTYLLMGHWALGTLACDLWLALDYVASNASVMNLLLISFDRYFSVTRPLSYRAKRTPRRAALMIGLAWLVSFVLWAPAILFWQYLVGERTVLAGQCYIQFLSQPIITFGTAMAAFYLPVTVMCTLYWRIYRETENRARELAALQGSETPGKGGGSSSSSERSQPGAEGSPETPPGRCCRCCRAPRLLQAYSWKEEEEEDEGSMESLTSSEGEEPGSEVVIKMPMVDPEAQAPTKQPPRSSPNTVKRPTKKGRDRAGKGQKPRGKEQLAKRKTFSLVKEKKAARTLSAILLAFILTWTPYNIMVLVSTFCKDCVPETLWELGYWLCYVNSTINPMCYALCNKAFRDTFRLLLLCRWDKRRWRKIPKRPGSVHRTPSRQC

[9] = target: 5-hydroxytryptamine receptor 1B (Homo sapiens, UniProt P28222); assay: as §1, with “HTR1B” for “CHRM5”
[10] = target: 5-hydroxytryptamine receptor 1D (Homo sapiens, UniProt P28221); assay: as §1, with “HTR1D” for “CHRM5”
[11] = target: 5-hydroxytryptamine receptor 7 (Homo sapiens, UniProt P34969); assay: as §1, with “HTR7” for “CHRM5”
[12] = target: Sodium-dependent noradrenaline transporter (Homo sapiens, UniProt P23975); assay: as §1, with “SLC6A2” for “CHRM5”
[13] = target: T5, Alpha-1B adrenergic receptor (Homo sapiens, UniProt P35368); assay: as §1, with “ADRA1B” for “CHRM5”
T5 sequence (P35368 whole entry): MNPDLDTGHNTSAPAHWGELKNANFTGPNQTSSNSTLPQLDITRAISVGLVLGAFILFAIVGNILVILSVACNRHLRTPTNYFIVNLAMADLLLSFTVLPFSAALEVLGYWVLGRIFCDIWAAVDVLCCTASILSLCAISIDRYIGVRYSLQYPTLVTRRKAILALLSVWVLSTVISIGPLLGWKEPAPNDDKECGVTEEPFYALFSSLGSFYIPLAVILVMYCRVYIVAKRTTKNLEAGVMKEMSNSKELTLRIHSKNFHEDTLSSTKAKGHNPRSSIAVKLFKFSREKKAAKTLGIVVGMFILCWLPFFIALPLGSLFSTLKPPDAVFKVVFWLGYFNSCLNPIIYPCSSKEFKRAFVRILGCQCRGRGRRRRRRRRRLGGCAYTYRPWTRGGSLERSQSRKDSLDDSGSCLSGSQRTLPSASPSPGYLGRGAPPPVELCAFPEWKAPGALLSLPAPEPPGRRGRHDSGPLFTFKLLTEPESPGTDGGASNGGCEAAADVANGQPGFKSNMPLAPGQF

[14] = target: T6, Alpha-2A adrenergic receptor (Homo sapiens, UniProt P08913); assay: as §1, with “ADRA2A” for “CHRM5”
T6 sequence (P08913 whole entry): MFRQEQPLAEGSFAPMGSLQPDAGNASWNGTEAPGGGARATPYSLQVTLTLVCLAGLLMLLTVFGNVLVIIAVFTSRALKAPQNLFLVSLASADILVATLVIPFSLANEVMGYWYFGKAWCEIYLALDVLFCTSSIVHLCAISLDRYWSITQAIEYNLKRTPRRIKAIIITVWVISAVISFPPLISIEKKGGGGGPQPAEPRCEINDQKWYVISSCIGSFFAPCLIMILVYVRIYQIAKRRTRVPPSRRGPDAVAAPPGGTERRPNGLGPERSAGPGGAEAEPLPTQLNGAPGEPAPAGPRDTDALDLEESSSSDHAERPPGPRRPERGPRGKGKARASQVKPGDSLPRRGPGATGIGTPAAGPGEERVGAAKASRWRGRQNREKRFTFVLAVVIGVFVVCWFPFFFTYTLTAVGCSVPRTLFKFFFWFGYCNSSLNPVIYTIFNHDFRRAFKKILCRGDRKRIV

[15] = target: T7, Alpha-1A adrenergic receptor (Homo sapiens, UniProt P35348); assay: as §1, with “ADRA1A” for “CHRM5”
T7 sequence (P35348 whole entry): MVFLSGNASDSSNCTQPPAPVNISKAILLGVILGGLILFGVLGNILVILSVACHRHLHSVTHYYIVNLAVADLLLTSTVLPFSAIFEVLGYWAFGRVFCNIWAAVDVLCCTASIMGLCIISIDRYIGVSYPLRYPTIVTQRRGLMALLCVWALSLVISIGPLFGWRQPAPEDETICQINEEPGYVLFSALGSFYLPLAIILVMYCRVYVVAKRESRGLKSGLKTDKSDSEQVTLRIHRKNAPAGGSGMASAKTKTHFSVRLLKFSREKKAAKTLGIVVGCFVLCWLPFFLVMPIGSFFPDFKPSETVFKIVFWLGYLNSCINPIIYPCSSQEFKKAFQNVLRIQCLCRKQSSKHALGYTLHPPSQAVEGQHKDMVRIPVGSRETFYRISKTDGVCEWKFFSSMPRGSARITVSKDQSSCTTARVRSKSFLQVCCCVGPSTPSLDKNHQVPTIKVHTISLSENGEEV

Histamine H1 receptor = Histamine H1 receptor (Homo sapiens, UniProt P35367); assay: as §1, with “HRH1” for “CHRM5”
[16] = target: 5-hydroxytryptamine receptor 2A (Homo sapiens, UniProt P28223); assay: as §1, with “HTR2A” for “CHRM5”
[17] = target: T8, 5-hydroxytryptamine receptor 3A (Homo sapiens, UniProt P46098); assay: as §1, with “HTR3A” for “CHRM5”
T8 sequence (P46098 whole entry): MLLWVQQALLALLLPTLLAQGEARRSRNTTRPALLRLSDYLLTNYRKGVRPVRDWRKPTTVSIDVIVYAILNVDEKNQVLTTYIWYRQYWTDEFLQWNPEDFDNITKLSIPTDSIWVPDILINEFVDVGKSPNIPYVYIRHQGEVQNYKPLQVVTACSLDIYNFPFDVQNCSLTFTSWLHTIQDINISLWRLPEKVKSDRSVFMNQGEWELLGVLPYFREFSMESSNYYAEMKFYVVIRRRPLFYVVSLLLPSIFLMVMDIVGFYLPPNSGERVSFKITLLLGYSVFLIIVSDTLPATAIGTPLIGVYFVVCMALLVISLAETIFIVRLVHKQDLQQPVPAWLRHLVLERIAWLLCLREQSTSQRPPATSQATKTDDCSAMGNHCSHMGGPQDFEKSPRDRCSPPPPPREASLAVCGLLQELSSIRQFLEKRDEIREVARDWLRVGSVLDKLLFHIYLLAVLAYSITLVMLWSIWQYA

Chain of Histamine H3 receptor (Q9Y5N1 whole entry): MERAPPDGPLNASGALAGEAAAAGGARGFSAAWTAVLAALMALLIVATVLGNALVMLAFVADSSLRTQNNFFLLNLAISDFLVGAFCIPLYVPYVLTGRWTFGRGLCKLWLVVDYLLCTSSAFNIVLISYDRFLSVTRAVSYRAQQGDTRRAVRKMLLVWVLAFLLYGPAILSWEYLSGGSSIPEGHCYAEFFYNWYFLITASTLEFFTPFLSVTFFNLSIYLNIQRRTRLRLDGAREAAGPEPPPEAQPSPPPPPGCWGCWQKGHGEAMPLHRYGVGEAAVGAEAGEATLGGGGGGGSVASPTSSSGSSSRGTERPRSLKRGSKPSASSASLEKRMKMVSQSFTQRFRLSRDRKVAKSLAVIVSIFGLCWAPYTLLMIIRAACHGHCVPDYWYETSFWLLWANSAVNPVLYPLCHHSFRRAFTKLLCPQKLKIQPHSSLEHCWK
Chain of Sigma non-opioid intracellular receptor 1 (Q99720 whole entry): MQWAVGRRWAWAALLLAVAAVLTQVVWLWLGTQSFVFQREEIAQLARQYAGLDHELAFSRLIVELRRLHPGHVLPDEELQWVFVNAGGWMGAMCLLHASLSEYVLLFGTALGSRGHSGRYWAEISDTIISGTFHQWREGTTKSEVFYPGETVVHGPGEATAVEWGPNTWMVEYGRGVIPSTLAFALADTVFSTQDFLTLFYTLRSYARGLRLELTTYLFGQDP
Chain of Sodium-dependent dopamine transporter (Q01959 whole entry): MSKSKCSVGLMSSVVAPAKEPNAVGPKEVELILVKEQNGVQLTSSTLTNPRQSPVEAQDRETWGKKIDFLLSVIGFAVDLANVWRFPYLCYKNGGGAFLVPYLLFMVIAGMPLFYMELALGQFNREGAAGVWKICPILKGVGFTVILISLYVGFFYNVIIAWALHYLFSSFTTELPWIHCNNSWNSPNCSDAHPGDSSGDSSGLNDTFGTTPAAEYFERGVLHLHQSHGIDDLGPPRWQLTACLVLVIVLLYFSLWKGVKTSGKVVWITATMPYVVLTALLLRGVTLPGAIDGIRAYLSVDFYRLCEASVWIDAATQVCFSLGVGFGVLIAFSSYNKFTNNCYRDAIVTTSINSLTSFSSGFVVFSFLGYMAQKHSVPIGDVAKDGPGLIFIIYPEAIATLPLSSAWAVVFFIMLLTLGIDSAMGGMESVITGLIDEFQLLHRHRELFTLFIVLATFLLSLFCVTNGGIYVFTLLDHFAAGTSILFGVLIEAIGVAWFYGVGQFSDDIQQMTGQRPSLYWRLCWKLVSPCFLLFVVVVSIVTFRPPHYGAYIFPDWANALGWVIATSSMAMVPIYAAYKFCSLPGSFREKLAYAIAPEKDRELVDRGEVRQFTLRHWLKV
Chain of Sigma intracellular receptor 2 (Q5BJF2 whole entry): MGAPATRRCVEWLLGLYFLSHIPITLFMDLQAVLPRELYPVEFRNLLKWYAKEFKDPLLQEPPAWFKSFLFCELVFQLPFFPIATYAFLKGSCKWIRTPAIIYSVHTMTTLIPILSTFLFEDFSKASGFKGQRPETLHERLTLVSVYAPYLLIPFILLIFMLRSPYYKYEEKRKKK
Chain of 5-hydroxytryptamine receptor 1B (P28222 whole entry): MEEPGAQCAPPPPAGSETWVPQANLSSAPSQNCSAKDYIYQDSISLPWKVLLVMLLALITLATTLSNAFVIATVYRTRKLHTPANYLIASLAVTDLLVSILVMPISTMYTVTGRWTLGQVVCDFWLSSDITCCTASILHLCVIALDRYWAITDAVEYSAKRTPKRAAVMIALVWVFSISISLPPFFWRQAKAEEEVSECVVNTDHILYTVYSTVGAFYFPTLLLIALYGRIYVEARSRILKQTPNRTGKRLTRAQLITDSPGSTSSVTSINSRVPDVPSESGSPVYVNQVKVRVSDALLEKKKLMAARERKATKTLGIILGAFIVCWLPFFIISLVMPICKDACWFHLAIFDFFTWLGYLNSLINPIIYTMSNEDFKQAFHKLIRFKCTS
Chain of Histamine H1 receptor (P35367 whole entry): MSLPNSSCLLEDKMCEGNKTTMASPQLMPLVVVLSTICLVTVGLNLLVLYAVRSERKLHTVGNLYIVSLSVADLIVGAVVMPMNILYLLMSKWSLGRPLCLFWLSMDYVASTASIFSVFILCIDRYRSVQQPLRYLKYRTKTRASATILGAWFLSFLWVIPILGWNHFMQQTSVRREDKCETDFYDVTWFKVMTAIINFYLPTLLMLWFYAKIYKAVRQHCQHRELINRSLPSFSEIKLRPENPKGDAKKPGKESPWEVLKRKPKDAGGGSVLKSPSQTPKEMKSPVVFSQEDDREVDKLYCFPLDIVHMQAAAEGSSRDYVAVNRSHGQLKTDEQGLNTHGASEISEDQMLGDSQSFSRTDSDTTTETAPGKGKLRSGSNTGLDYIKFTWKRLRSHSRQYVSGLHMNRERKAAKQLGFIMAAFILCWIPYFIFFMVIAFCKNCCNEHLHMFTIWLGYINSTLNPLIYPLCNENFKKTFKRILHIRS
Chain of Sodium-dependent noradrenaline transporter (P23975 whole entry): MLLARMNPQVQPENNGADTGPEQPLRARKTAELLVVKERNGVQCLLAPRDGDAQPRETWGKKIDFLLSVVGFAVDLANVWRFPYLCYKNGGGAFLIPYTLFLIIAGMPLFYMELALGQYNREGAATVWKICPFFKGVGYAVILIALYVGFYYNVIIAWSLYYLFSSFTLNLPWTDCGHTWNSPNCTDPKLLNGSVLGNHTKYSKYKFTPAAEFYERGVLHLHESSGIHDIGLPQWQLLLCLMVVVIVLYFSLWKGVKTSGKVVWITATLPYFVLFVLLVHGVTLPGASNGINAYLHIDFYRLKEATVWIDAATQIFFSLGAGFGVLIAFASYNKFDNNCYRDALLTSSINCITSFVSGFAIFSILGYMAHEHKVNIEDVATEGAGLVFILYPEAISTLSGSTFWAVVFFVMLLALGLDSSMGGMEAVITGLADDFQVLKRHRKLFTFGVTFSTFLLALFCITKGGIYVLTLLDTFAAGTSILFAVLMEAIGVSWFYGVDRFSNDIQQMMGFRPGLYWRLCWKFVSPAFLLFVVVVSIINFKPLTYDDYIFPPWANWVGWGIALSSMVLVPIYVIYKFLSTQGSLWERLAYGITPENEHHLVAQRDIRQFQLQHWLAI
Chain of 5-hydroxytryptamine receptor 7 (P34969 whole entry): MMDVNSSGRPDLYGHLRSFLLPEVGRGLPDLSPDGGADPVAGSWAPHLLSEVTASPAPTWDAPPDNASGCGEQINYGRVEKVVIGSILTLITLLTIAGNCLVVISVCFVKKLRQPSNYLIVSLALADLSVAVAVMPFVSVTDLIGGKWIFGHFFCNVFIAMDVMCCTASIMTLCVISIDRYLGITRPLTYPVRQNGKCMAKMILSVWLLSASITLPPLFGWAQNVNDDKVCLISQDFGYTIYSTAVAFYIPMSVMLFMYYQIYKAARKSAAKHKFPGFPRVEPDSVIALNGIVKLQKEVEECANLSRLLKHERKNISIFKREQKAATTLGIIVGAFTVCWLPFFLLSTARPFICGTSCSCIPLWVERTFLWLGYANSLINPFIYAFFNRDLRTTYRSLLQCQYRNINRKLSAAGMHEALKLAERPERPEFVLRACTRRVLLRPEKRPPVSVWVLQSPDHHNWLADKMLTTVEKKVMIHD
Chain of 5-hydroxytryptamine receptor 1D (P28221 whole entry): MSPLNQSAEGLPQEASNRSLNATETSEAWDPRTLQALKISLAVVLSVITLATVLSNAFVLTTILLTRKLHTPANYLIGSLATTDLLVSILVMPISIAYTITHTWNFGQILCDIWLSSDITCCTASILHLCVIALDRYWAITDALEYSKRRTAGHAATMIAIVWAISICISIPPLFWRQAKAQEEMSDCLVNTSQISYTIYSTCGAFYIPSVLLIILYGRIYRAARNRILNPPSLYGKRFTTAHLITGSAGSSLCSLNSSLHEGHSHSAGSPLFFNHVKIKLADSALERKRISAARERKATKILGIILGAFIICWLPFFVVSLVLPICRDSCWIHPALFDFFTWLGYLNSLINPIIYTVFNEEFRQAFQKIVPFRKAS
Chain of Kappa-type opioid receptor (P41145 whole entry): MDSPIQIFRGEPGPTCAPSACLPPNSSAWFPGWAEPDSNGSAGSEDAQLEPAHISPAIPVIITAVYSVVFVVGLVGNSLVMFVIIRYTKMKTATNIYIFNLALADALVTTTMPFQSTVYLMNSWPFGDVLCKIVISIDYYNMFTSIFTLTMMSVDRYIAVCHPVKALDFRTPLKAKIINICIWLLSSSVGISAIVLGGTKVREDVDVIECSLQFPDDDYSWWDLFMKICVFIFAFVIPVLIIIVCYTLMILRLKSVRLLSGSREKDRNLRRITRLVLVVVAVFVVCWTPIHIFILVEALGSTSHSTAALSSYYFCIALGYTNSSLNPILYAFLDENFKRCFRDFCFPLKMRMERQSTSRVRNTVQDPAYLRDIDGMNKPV
Chain of 5-hydroxytryptamine receptor 2A (P28223 whole entry): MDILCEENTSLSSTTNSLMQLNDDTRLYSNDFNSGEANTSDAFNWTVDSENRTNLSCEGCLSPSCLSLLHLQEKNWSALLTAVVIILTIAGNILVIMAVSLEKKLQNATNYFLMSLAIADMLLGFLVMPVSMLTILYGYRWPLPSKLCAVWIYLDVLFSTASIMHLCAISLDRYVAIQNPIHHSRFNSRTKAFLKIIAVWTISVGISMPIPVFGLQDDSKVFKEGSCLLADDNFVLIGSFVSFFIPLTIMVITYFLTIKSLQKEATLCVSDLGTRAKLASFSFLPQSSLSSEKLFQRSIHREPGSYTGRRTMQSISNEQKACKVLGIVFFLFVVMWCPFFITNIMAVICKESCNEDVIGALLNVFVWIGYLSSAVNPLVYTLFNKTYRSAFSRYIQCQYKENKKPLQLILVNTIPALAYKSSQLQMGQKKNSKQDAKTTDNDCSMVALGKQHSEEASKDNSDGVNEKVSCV

Ki [1]	Ki [3]	Ki [5]	Ki (Histamine H3 receptor)	Ki [6]	Ki [8]	Compound	Ki [2]	Ki [4]	Ki [7]	Ki [9]	Ki [10]	Ki [11]	Ki [12]	Ki [13]	Ki [14]	Ki [15]	Ki (Histamine H1 receptor)	Ki [16]	Ki [17]
841 nM	195 nM	1260 nM	645 nM	528 nM	–	COc1ccc2cc(S(=O)(=O)N[C@H](CC(=O)N[C@H](Cc3ccc(CN4[C@H](C)CCC[C@@H]4C)cc3)C(=O)N(C)C(C)C)c3ccc4c(c3)OCO4)ccc2c1	63.4 nM	495 nM	–	–	–	–	–	–	–	–	–	–	–
–	–	1780 nM	2.74 nM	1010 nM	804 nM	c1cc(CN2CCCNCCNCCCNCC2)ccc1CN1CCCNCCNCCCNCC1 [PLERIXAFOR]	–	–	> 10000 nM	–	–	–	–	–	–	–	–	–	–

Compound	Ki [1]	Ki [3]	Ki [5]	Ki (Histamine H3 receptor)	Ki [6]	Ki [8]	Ki [2]	Ki [4]	Ki [7]	Ki [9]	Ki [10]	Ki [11]	Ki [12]	Ki [13]	Ki [14]	Ki [15]	Ki (Histamine H1 receptor)	Ki [16]	Ki [17]
NCCc1cn(S(=O)(=O)c2c(Cl)nc3sccn23)c2ccccc12	–	–	–	1980 nM	–	–	675 nM	1320 nM	1720 nM	562 nM	216 nM	1430 nM	1260 nM	4880 nM	153 nM	1100 nM	1650 nM	111 nM	662 nM
